In ChEMBL document CHEMBL1201862, “PubChem BioAssay data set” (2004) one finds EC50 and AC50 data, which are given here for 18 compounds.

The source made the active and inactive calls. Cut-off read from the data, not from the text of the source, for most assays here: actives have a measured EC50 and inactives only a lower limit.

A short description of experiment [1]: Luminescence Cell-Based Dose Confirmation HTS to Identify Activators of 5'UTR Stem-Loop Driven Alpha-Synuclein mRNA Translation in H4 Neuroglioblastoma Cells. [Related pubchem assays: 1829 (Project Summary), 1814 (Primary HTS)]. Format: functional.
A short description of experiment [2]: Luminescence Cell-Based Dose Response HTS to Identify Activators of Luciferase Translation or Activity in H4 […] Cells. [Related pubchem assays: 1829 (Project Summary), 1814 (Primary HTS)]. The format is functional.
Another experiment concerns H4. Nature of the experiment: Luminescence Cell-Based Dose Response HTS to Identify Activators of 5'UTR Stem-Loop Driven Prion Protein mRNA Translation in H4 Neuroglioblastoma Cells. [Related pubchem assays: 1829 (Project Summary), 1814 (Primary HTS)]. The format is functional. The following applies: Homo sapiens.
A short description of experiment [3]: fluconazole-exposed Candida albicans growth modulators – fluorescence, retest, confirmation (AID 2467). The format is functional, cell-based.
Experiment [4] can be described thus: NIH-3T3 fibroblast cytotoxicity, dose response, cytotoxicity control, cell-based, fluorescence, Alamar Blue, secondary assay (AID 2327).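 Note: NIH-3T3 mouse fibroblasts cultured with fluconazole at 8 µg/mL.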 Format: functional.
Another experiment addresses T1, Protein RecA (Mycobacterium tuberculosis, UniProt P9WHJ3).
T1 sequence (P9WHJ3 whole entry): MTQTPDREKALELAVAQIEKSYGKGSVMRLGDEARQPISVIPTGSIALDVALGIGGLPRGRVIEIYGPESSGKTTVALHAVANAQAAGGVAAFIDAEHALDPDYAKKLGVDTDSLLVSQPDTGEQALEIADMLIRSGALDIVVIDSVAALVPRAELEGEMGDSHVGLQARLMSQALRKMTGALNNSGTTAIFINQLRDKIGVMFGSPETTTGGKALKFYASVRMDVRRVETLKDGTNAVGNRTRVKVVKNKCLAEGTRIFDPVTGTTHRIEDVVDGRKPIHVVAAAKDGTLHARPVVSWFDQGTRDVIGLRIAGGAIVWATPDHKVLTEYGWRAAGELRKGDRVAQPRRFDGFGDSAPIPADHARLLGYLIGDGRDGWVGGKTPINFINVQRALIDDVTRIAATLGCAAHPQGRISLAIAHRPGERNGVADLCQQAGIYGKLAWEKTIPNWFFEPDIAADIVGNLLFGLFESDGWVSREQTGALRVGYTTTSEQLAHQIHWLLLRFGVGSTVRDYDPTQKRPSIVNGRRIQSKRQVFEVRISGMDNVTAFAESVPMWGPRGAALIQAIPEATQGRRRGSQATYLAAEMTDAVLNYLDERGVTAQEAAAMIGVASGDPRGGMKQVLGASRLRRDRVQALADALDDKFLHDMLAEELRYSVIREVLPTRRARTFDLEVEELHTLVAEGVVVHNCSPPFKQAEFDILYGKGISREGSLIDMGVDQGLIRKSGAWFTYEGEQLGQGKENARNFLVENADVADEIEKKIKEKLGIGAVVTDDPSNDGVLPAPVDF
Briefly: Fluorescence Cell-Free Homogeneous Dose Retest to Identify Inhibitors of RecA-Intein Splicing Activity. [Related pubchem assays (depositor defined):AID2097, AID2223, AID489010, AID492950]. Format: functional.

The target in experiment [5] is T2, Replicative DNA helicase DnaB (Mycobacterium tuberculosis, UniProt P9WMR3).
T2 sequence (P9WMR3 whole entry): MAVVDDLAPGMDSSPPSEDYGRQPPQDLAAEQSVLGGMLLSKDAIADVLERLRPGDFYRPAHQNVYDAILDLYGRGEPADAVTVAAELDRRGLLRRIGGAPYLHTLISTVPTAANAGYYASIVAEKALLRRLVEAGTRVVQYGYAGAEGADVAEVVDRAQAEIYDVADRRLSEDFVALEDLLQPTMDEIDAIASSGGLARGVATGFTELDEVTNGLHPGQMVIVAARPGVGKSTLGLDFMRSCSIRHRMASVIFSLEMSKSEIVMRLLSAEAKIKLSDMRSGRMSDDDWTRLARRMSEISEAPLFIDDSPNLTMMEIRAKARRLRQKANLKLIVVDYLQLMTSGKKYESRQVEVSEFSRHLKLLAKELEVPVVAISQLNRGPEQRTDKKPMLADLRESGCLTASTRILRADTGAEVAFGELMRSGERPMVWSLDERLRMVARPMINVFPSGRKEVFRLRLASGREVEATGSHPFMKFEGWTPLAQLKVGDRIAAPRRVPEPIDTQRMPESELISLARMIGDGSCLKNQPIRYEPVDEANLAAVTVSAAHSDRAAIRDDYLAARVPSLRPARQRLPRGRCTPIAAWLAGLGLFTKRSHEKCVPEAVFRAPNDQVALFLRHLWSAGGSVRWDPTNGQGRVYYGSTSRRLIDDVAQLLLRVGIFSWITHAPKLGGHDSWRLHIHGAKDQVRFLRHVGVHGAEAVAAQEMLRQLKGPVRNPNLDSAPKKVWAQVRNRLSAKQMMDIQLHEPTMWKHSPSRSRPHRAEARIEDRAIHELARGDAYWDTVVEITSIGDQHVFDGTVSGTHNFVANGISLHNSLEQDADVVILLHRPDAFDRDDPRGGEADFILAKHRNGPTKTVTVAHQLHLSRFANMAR
Briefly: DnaB intein splicing inhibitors, dose response, biochemical, cell-free fluorescence (AID 449749). The format is functional.

`CCc1nnc(NC(=O)C23CC4CC(CC(C4)C2)C3)s1`: the EC50 in experiment [1] is 19 µM (active); in experiment [2], 45.6 µM (active); with H4 it was 8.2 µM (active).
For `Cc1ccc(NC(=O)CSc2nnc([C@@H](N)Cc3c[nH]c4ccccc34)o2)c(C)c1`, the EC50 in experiment [3] was > 38 µM (not active); in experiment [4], > 150 µM (inactive).
In the case of `Cc1ccc(-c2noc(-c3ccccc3C(=O)N3CCOCC3)n2)cc1`, the EC50 at Protein RecA is > 380 µM (inactive). In experiment [5], the AC50 was 196 µM (active).
`Nc1ccc(S(=O)(=O)Nc2nccc(/C=C/c3ccc(Cl)cc3Cl)n2)cc1`: the EC50 in experiment [1] is > 120 µM (not active); in experiment [2], 13.6 µM (active); in the experiment with H4, > 120 µM (not active).
Regarding `O=C(NNc1ccc(Cl)cc1)c1c(F)cccc1Cl`, the EC50 is > 38 µM (not active) in experiment [3] and > 150 µM (inactive) in experiment [4].
As to `COc1ccc2c(c1)C(=C(C#N)C#N)C(=O)N2CCc1ccccc1`, the EC50 on Protein RecA was 21.2 µM (active). Besides, in experiment [5], the AC50 is 3.97 µM (active).
As to `COc1cc(C)c(Cl)c(C)c1S(=O)(=O)NC1CC(C)(C)NC(C)(C)C1`, the EC50 in experiment [1] is 15.2 µM (active); in experiment [2] it was > 120 µM (not active); with H4, > 120 µM (not active).
In the case of `O=C(NC1=NCCS1)c1ccc(-c2ccc(Cl)cc2)o1`, the EC50 in experiment [1] is 21.4 µM (active); in experiment [2], 0.306 µM (active).
For `Cc1cc(O)ccc1Nc1nc(-c2cccnc2)cs1`, the EC50 was 7.92 µM (active) in experiment [1], 0.389 µM (active) in experiment [2] and 6.4 µM (active) in the experiment with H4.
The matching figures for `COc1cccc(C2=NO[C@@H]3C(=O)N(c4ccc5c(c4)OCCO5)C(=O)[C@H]23)c1OC`: > 120 µM (not active), > 120 µM (not active) and > 120 µM (not active).
Consider `C/C(CC(=O)Nc1ccccc1[N+](=O)[O-])=N\NC(=O)COc1ccccc1C`, for which the EC50 on Protein RecA was 3.85 µM (active). The AC50 in experiment [5] is 10.5 µM (active).
Turning to `O=C(CN1CCCCC1)Nc1scc2c1c(=O)oc1ccccc12`, the EC50 in experiment [1] was > 120 µM (not active); in experiment [2], 16.1 µM (active); in the experiment on H4, 59.7 µM (active).
`CC(=O)C1=C(O)C(=O)N(c2ccc(Br)cn2)C1c1ccc(Br)cc1` (stereo unspecified): the values for the EC50 (in experiment [1]; in experiment [2]; in the experiment on H4) were > 120 µM (not active), 0.112 µM (active) and 0.987 µM (active), respectively.
With `CC(=O)c1cnc2nc(SCc3ccccc3)nn2c1C`, the concentration for a half-maximal effect (EC50) was 0.116 µM (active) in experiment [1], 0.131 µM (inconclusive) in experiment [2] and 74.8 µM (active) in the experiment with H4.
Take `COc1ccc(-c2ccc(=O)n(CC(=O)Nc3cccc(O)c3)n2)cc1OC`: the 50% effective concentration (EC50) is > 38 µM (not active) in experiment [3] and > 150 µM (inconclusive) in experiment [4].
Consider `Cc1cc(C)nc(SC2=CS(=O)(=O)c3ccccc32)n1`, for which the EC50 in experiment [1] was 12.1 µM (active); in the experiment on H4, > 120 µM (not active).
As for `Cc1nc(-c2ccc(S(=O)(=O)Oc3ccccc3Cl)s2)cs1`, the values for the 50% effective concentration (EC50) (in experiment [1]; in experiment [2]; in the experiment with H4) were 13 µM (active), 12 µM (active) and 2.84 µM (active), respectively.
On the same counts, the results for `O=c1c2ccccc2cnn1CCOc1cccc(Br)c1` are 27.5 µM (active), 33.9 µM (active) and 6.06 µM (active).

The term EC50 denotes the midpoint of the concentration-response curve. As usually defined, the AC50 is the concentration giving half of the maximal activity seen.
